Data as given in US20260263480A1, “PHARMACEUTICAL COMPOSITION CONTAINING A DIPEPTIDYL PEPTIDASE SMALL MOLECULE INHIBITOR” (HAISCO PHARMACEUTICALS PTE. LTD., priority 2023, published 2026).

How the values were obtained:
[1] = test system: NE enzyme; conditions: cited from earlier work
[2] = test system: LPS-induced acute lung injury; conditions: cited from earlier work
[3] = both, Sprague-Dawley (SD), rat, in vivo, 14 days
Protocol: The treatment group each includes 16 rats, and the vehicle control group includes 10 rats, with a half of male rats and a half of female rats. The drug at corresponding concentrations and the vehicle were administered to the rats through oral gavage daily for 14 consecutive days. The rats were allowed to recover for 7 days. During the administration period, general conditions, body weight and food intake were detected for each group. After the administration period and the recovery period, hematology test, serum biochemistry test and gross anatomical examination were performed for each group.

## Cn1c(=O)oc2ccc(-c3ccc(C[C@@H](C#N)NC(=O)[C@@H]4CNCCCO4)c(F)c3)cc21 [Compound A, (S)—N—((S)-1-cyano-2-(2-fluoro-4-(3-methyl-2-oxo-2,3-dihydrobenzo[d]oxazol-5-yl)phenyl)ethyl)-1,4-oxazepane-2-carboxamide]
[1]
  Inhibition of NE enzyme activity in rat bone marrow: significantly inhibit NE enzyme activity in rat bone marrow
[2]
  Effect on LPS-induced acute lung injury in mice: mitigate LPS-induced acute lung injury in mice
[3]
  Toxicity compared at the same dose: less toxic than INS1007
